Earlier results on one compound are cited in patent US20070048371A1, “Pharmaceutical formulations/composition of guanfacine suitable for single dose form administration daily” (priority 2005, published 2007).

Where a name gives a salt, the structure may show the parent alone.

For this data set the following is noted: white to off-white powder; cited from earlier work.

Turning to `N=C(N)NC(=O)Cc1c(Cl)cccc1Cl` [Guanfacine hydrochloride, N-amidino-2-(2,6-dichlorophenyl) acetamide hydrochloride], the solubility in acetone entry was “slightly soluble”; the “solubility in water and alcohol” value is “sparingly soluble”.
